What is called melting point is the temperature of the solid-liquid transition.

Turning to `CCCCCCCCC[C@@H](CC(N)=O)N(CCC)C(=O)[C@H](CCCC(=O)O)NC(=O)c1cn(Cc2ccccc2)c2ccccc12`, the melting point lay in the range of 155 to 160 °C.
In the case of `CCCCOCCOc1ccc(-c2ccc(N(C)CCOC)c(C=CC(=O)O)c2)cc1` it was 86.4 to 87.4 °C; in that of `Cc1cc(-n2ccnc2)c2cccc(OCc3c(Cl)ccc(S(=O)(=O)N4CCC[C@H]4C(=O)N4CCN(C(=O)OC(C)(C)C)CC4)c3Cl)c2n1`, 98 °C; in that of `CC(C)(C)c1ccc2c(c1)C=C(C(=O)O)CC2`, 185 to 186 °C.
In the case of `COCCn1cc2c(C3C(=O)Nc4ccc(Br)cc43)nc(Cl)nc2n1` (stereo unspecified) it was > 300 °C.
In the case of `COc1ccc(N2CCN(c3ccc(S(=O)(=O)N[C@@H](Cc4ccccc4)C(=O)O)cc3)CC2)cc1`, the melting point fell in the range of 203 to 205 °C.
`CSc1cccc(-n2cnc(C(=O)O)c2)c1`: the melting point is 190 to 192 °C.
The figure for `CCCCNC(=O)N(C)c1cccc(-c2ccc(C=C(OC)C(=O)OC)cc2)c1` is 89 °C; for `C(=C\c1nc(COc2ccc(CCCCn3ccnn3)cc2)co1)/c1ccccc1` it is 125 to 126 °C; for `CCN1CCN(c2ccc(-c3ccc4c(Nc5ccc(Sc6nccn6C)c(Cl)c5)c(C#N)cnc4c3)nc2)CC1` it is 246 to 248 °C.
The figure for `COc1ccccc1N1CCN(C[C@@H](CC2CCCCC2)NC(=O)C2CCCCC2)CC1` is 121 to 131 °C; for `CC(CO)(CO)OCc1ccccc1` it is 89.5 to 90 °C; for `CCOC(=O)C1CCN(c2nc(C)nc3c2C(C)C(=O)N3c2c(C)cc(Br)cc2C)CC1` (stereo unspecified) it is 159 to 161 °C.
The figure for `C#Cc1ccc(OC2CCCCO2)cc1` (stereo unspecified) is 65 °C.
`CC1=NC(Cc2ncc(Br)cn2)C(Br)=CN1` (stereo unspecified) had a melting point of 176 °C.
For `CC(=O)OCCn1ccc(=O)c(O)c1Cc1ccc(C)cc1`, the melting point lay in the range of 205 to 206 °C.
In the case of `CCCNC(=O)C(C)(C)n1cc(C)c(-c2ccccc2)n1` it was 47 to 50 °C.
In the case of `O=C(O)c1ccc(N2CC(=O)N(S(=O)(=O)c3ccc(Cl)cc3)C2=O)cc1` it was 271 to 272 °C; in that of `COC(CN(C)C(=O)Nc1cc(C(C)(C)C)on1)OC`, 80 to 84 °C; in that of `O=C(O)[C@H]1O[C@@H]1C1CCCCC1`, 64 to 65 °C.
In the case of `Oc1ccc2c(NCCN3CCOCC3)noc2c1`, the melting point is 151 to 152 °C.
The figure for `COc1ccc(-n2nc(Sc3ccc(C(C)C)cc3)c(C)c(C#N)c2=O)cc1` is 141 to 144 °C; for `COc1ccc(/C=C(\C#N)c2ccc(N)cc2)cc1OC1CCCC1` it is 82 to 84 °C; for `CCOC(=O)C(O)Cc1ccc(OCCNC(=O)c2ccc(-c3ccccn3)cc2)cc1` (stereo unspecified) it is 97 to 99 °C.
The figure for `N#CCc1ccc(C(=O)c2ccc(Cl)cc2)n1Cc1ccccc1` is 104 to 106 °C; for `NC(=S)NN=C(CCCOC(=O)NCc1ccccc1)c1ccccc1` it is 137 to 140 °C; for `CCOC(=O)/C=C(C)/C(F)=C/C=C(C)/C=C/c1c(C)cc(C)c(Cl)c1C` it is 100 to 104 °C.
The figure for `CCCSc1sc(C(N)=O)c2c1-c1nn(S(C)(=O)=O)cc1CC2` is 191 to 192 °C; for `C=C(Br)CCC(=O)NC(C(=O)OCC)C(=O)OCC` it is 85 to 87 °C.
In turn, `COc1cc(-c2ccccc2)c(OCC(=O)O)c(-c2ccccc2)c1` showed a melting point of 143 to 145 °C.
In the case of `Nc1c2c(nc3ccccc13)CCCC2N1CCC(c2ccccc2)CC1` (stereo unspecified) it was 189 to 190 °C.
In the case of `CN(C)C1(c2ccccc2)CCC(C(O)CN2Cc3ccccc3C2)CC1` (stereo unspecified) it was 130 to 135 °C; in that of `C(=C\c1nc2ccccc2n1-c1cccnc1)/c1ccccc1`, 118 °C; in that of `CC(=O)n1c(C)c(-c2ccccc2)c(=O)n1-c1ncccn1`, 138 to 140 °C.
`Cc1cccc(C2(C(N)=S)CCCS2)n1` (stereo unspecified) had a melting point of 171 °C.
The figure for `CSC(=C[N+](=O)[O-])NCCSCc1ccsn1` is 64.5 to 65.5 °C.

The values above are taken from a melting point compilation (Tetko et al.; mined from patent text by program, amines drawn as free bases though some values may be those of a salt).
